The test system of the assay is nude mice, LOX melanoma ip, survival T/C. As to the kind of experiment: NCI In Vivo Anticancer Drug Screen. Data for tumor model Human Amelanotic Melanoma (LOX) (intraperitoneal) in NU/NU BALB/C (nude) mice. The note with it: endpoint: median survival time, higher = longer survival. The method, then: The antitumor activity of compounds was measured in mice bearing transplantable tumors. Survival or tumor size were measured and the results are expressed as the measurement made in the treated group (T) divided by the measurement made in the vehicle treated control group (C). The tumor model used in this assay is Human Amelanotic Melanoma (LOX) (intraperitoneal) in NU/NU BALB/C (nude) mice

[1] abbreviates: dose: 12.5 mg/kg/injection, schedule: Q04DX003 (ip), vehicle: saline with Tween-80.
The mark [2] stands for this setting: dose: 25.0 mg/kg/injection, schedule: Q04DX003 (ip), vehicle: saline with Tween-80.
[3] abbreviates: dose: 50.0 mg/kg/injection, schedule: Q04DX003 (ip), vehicle: saline with Tween-80.
The mark [4] stands for this setting: dose: 60.0 mg/kg/injection, schedule: Q04DX003 (ip), vehicle: saline with Tween-80.
[5] abbreviates: dose: 75.0 mg/kg/injection, schedule: Q04DX003 (ip), vehicle: saline with Tween-80.
Where [6] appears, read: dose: 150.0 mg/kg/injection, schedule: Q04DX003 (ip), vehicle: saline with Tween-80.
Setting [7] is: dose: 600.0 mg/kg/injection, schedule: Q04DX003 (ip), vehicle: Klucel (hydroxypropylcellulose) (HPC).
[8] abbreviates: dose: 1200.0 mg/kg/injection, schedule: Q04DX003 (ip), vehicle: Klucel (hydroxypropylcellulose) (HPC).
The mark [9] stands for this setting: dose: 100.0 mg/kg/injection, schedule: Q04DX003 (ip), vehicle: saline with Tween-80.
The mark [10] stands for this setting: dose: 200.0 mg/kg/injection, schedule: Q04DX003 (ip), vehicle: saline with Tween-80.
Where [11] appears, read: dose: 6.25 mg/kg/injection, schedule: Q04DX003 (ip), vehicle: saline with Tween-80.

Each structure is given as a SMILES string. Values joined by “and” are separate entries in the source; they are usually repeats but may differ in a detail not shown here. Equal entries are not always repeated. Toxic doses and inconclusive results are not listed.

In the case of `C[n+]1c(-c2ccc(NC(=O)c3ccc(C(=O)Nc4ccc(-c5cn6ccccc6[n+]5C)cc4)cc3)cc2)cn2ccccc21`, the T/C is 114 % of control under setting [1], 103 % of control under setting [2] and 97 % of control under setting [3].

With `CC(O)C1(O)C(O)CC(OC2c3cc4c(c(O)c3[C@@H]3C[C@@]2(C)OC32C=c3cc[nH]c3=N2)C(=O)c2cccc(O)c2C4=O)OC1C` (stereo partly specified), the T/C by setting is: (dose: 3.75 mg/kg/injection, schedule: Q04DX003 (ip), vehicle: saline with Tween-80) 108 % of control; (dose: 7.5 mg/kg/injection, schedule: Q04DX003 (ip), vehicle: saline with Tween-80) 112 % of control; (dose: 15.0 mg/kg/injection, schedule: Q04DX003 (ip), vehicle: saline with Tween-80) 117 % of control; (dose: 30.0 mg/kg/injection, schedule: Q04DX003 (ip), vehicle: saline with Tween-80) 117 % of control; under setting [4], 91 % of control.

For `O=c1[nH]cc(F)c(=O)[nH]1`, the T/C is 123 % of control (dose: 5.0 mg/kg/injection, schedule: Q01DX005 (ip), vehicle: saline); 115 % of control (dose: 5.0 mg/kg/injection, schedule: Q01DX015 (ip), vehicle: saline); 224 % of control (dose: 10.0 mg/kg/injection, schedule: Q01DX015 (ip), vehicle: saline); 163 % of control (dose: 10.0 mg/kg/injection, schedule: Q04DX003 (ip), vehicle: saline); 108 % of control (dose: 15.0 mg/kg/injection, schedule: Q04DX003 (ip), vehicle: saline); 166 % of control (dose: 20.0 mg/kg/injection, schedule: Q01DX005 (ip), vehicle: saline). The T/C by setting is: (dose: 20.0 mg/kg/injection, schedule: Q01DX015 (ip), vehicle: saline) 211 % of control; (dose: 20.0 mg/kg/injection, schedule: Q04DX003 (ip), vehicle: saline) 191 % of control; (dose: 30.0 mg/kg/injection, schedule: Q04DX003 (ip), vehicle: saline) 179 % of control; (dose: 40.0 mg/kg/injection, schedule: Q01DX005 (ip), vehicle: saline) 160 % of control; (dose: 60.0 mg/kg/injection, schedule: Q04DX003 (ip), vehicle: saline) 185 % of control.

`COc1cc2c(cc1OC)-c1c3c(cc4c1[C@@H](C2)N(C)CC4)OCO3`: the T/C is, setting by setting: (dose: 32.0 mg/kg/injection, schedule: Q04DX003 (ip), vehicle: distilled water + Tween-80 + alcohol) 115 % of control; (dose: 90.0 mg/kg/injection, schedule: Q04DX003 (ip), vehicle: distilled water + Tween-80 + alcohol) 109 % of control; (dose: 150.0 mg/kg/injection, schedule: Q04DX003 (ip), vehicle: distilled water + Tween-80 + alcohol) 123 % of control.

Turning to `O=C(O)Cc1cccc(=O)c(O)c1C(=O)O`, the T/C runs as follows: under setting [5], 97 % of control; under setting [6], 94 % of control.

Regarding `OCC1OC(n2cnc3c2NC=NC[C@H]3O)CC1O` (stereo partly specified), the T/C was 102 % of control (dose: 2.0 mg/kg/injection, schedule: Q04DX003 (ip), vehicle: saline); 94 % of control (dose: 4.0 mg/kg/injection, schedule: Q04DX003 (ip), vehicle: saline); 96 % of control (dose: 8.0 mg/kg/injection, schedule: Q04DX003 (ip), vehicle: saline); 100 % of control (dose: 16.0 mg/kg/injection, schedule: Q04DX003 (ip), vehicle: saline).

Turning to `CC(C)(C)c1ccc(C(=O)N2CCOC23CCCCC3)cc1`, the T/C runs as follows: (dose: 75.0 mg/kg/injection, schedule: Q04DX003 (ip), vehicle: Klucel (hydroxypropylcellulose) (HPC)) 98 % of control; (dose: 150.0 mg/kg/injection, schedule: Q04DX003 (ip), vehicle: Klucel (hydroxypropylcellulose) (HPC)) 95 % of control; (dose: 300.0 mg/kg/injection, schedule: Q04DX003 (ip), vehicle: Klucel (hydroxypropylcellulose) (HPC)) 92 % of control; under setting [7], 107 % of control; under setting [8], 107 % of control.

On to `Nc1ccc2ccc(N)cc2c1`, for which the T/C reads like this: under setting [2], 102 % of control; under setting [3], 101 % of control; under setting [9], 102 % of control; under setting [10], 91 % of control; (dose: 400.0 mg/kg/injection, schedule: Q04DX003 (ip), vehicle: saline with Tween-80) 101 % of control.

For `O=C1C=CC2OC(c3ccccc3)C(O)C2O1` (stereo unspecified), the T/C (dose: 12.5 mg/kg/injection, schedule: Q04DX003 (ip), vehicle: DMSO) is 105 % of control; the T/C (dose: 25.0 mg/kg/injection, schedule: Q04DX003 (ip), vehicle: DMSO) is 103 % of control; the T/C (dose: 50.0 mg/kg/injection, schedule: Q04DX003 (ip), vehicle: DMSO) was 103 % of control.

`COc1cc(C)c(C2NC(=O)c3ccccc3N2)cc1C` (stereo unspecified): the T/C reads like this: under setting [7], 166 % of control; under setting [8], 192 % of control.

In the case of `O=C1C=CC(=CC=C2C=CN(CCCCCCCCCCCO)C=C2)C=C1`, the T/C was 107 % of control under setting [11]; 100 % of control under setting [1]; 109 % of control and 110 % of control (dose: 36.0 mg/kg/injection, schedule: Q04DX003 (ip), vehicle: saline with Tween-80); 117 % of control under setting [3]; 116 % of control and 120 % of control under setting [4]; 159 % of control under setting [10].

Turning to `O=[N+]([O-])c1ccc(N(CCO)CCO)c2c1no[n+]2[O-]`, the T/C is, setting by setting: under setting [11], 99 % of control; under setting [1], 106 % of control; under setting [2], 111 % of control; under setting [3], 93 % of control; under setting [9], 115 % of control.

For `O=C1C=C(N2CC2)C(=O)C(N2CC2)=C1N1CC1`, the T/C (dose: 25.0 micrograms/kg/injection, schedule: Q04DX003 (ip), vehicle: saline) is 177 % of control; the T/C (dose: 43.0 micrograms/kg/injection, schedule: Q04DX003 (ip), vehicle: saline) was 116 % of control; the T/C (dose: 100.0 micrograms/kg/injection, schedule: Q04DX003 (ip), vehicle: saline) is 220 % of control; the T/C (dose: 120.0 micrograms/kg/injection, schedule: Q04DX003 (ip), vehicle: saline) is 158 % of control; the T/C (dose: 200.0 micrograms/kg/injection, schedule: Q04DX003 (ip), vehicle: saline) was 277 % of control; the T/C (dose: 333.0 micrograms/kg/injection, schedule: Q04DX003 (ip), vehicle: saline) is 187 % of control.

`COc1cc(C(=O)N/N=C/c2cccc([N+](=O)[O-])c2)cc(OC)c1OC`: the T/C reads like this: (dose: 37.5 mg/kg/injection, schedule: Q04DX003 (ip), vehicle: saline with Tween-80) 98 % of control; under setting [5], 101 % of control and 96 % of control; under setting [6], 104 % of control and 105 % of control; (dose: 300.0 mg/kg/injection, schedule: Q04DX003 (ip), vehicle: saline with Tween-80) 98 % of control; (dose: 600.0 mg/kg/injection, schedule: Q04DX003 (ip), vehicle: saline with Tween-80) 105 % of control and 98 % of control; (dose: 1200.0 mg/kg/injection, schedule: Q04DX003 (ip), vehicle: saline with Tween-80) 114 % of control.

Regarding `O=CC(O)C(O)C(O)C(O)CO` (stereo unspecified), the T/C is, setting by setting: (dose: 75.0 mg/kg/injection, schedule: Q04DX003 (ip), vehicle: saline) 112 % of control and 99 % of control; (dose: 150.0 mg/kg/injection, schedule: Q04DX003 (ip), vehicle: saline) 107 % of control and 98 % of control; (dose: 300.0 mg/kg/injection, schedule: Q04DX003 (ip), vehicle: saline) 102 % of control and 106 % of control; (dose: 600.0 mg/kg/injection, schedule: Q04DX003 (ip), vehicle: saline) 95 % of control; (dose: 1200.0 mg/kg/injection, schedule: Q04DX003 (ip), vehicle: saline) 98 % of control and 99 % of control.

`Nc1nc(Br)nc2c1ncn2C1CC(O)C(CO)O1` (stereo unspecified): the T/C under setting [1] is 99 % of control; the T/C under setting [2] was 106 % of control; the T/C under setting [3] was 104 % of control; the T/C under setting [9] was 104 % of control; the T/C under setting [10] is 93 % of control.

Values taken from PubChem BioAssay AID280 (DTP/NCI, 2004).
